Measurements taken from ChEMBL document CHEMBL4028801, “A multifactorial approach to hepatobiliary transporter assessment enables improved therapeutic compound development” (Toxicol Sci, 2013).
Structures can show the parent of a compound that is named as a salt. Positions of bridges follow the written chain, without caps; N, C: chain ends. Non-standard residues stand in square brackets, D forms with d. Residues, ends and D or L forms follow the SMILES beside them. Orn = NCCC[C@H](N)C(=O)O; Mpa = O=C(O)CCS

Assays:
[1] = molecular target: Bile salt export pump (Homo sapiens, UniProt O95342); assay: Inhibition of human BSEP overexpressed in Sf9 cell membrane vesicles assessed as uptake of [3H]-taurocholate in presence of ATP measured after 15 to 20 mins by membrane vesicle transport assay; assay type: ADME, cell-based
Sequence of Bile salt export pump (O95342 whole entry): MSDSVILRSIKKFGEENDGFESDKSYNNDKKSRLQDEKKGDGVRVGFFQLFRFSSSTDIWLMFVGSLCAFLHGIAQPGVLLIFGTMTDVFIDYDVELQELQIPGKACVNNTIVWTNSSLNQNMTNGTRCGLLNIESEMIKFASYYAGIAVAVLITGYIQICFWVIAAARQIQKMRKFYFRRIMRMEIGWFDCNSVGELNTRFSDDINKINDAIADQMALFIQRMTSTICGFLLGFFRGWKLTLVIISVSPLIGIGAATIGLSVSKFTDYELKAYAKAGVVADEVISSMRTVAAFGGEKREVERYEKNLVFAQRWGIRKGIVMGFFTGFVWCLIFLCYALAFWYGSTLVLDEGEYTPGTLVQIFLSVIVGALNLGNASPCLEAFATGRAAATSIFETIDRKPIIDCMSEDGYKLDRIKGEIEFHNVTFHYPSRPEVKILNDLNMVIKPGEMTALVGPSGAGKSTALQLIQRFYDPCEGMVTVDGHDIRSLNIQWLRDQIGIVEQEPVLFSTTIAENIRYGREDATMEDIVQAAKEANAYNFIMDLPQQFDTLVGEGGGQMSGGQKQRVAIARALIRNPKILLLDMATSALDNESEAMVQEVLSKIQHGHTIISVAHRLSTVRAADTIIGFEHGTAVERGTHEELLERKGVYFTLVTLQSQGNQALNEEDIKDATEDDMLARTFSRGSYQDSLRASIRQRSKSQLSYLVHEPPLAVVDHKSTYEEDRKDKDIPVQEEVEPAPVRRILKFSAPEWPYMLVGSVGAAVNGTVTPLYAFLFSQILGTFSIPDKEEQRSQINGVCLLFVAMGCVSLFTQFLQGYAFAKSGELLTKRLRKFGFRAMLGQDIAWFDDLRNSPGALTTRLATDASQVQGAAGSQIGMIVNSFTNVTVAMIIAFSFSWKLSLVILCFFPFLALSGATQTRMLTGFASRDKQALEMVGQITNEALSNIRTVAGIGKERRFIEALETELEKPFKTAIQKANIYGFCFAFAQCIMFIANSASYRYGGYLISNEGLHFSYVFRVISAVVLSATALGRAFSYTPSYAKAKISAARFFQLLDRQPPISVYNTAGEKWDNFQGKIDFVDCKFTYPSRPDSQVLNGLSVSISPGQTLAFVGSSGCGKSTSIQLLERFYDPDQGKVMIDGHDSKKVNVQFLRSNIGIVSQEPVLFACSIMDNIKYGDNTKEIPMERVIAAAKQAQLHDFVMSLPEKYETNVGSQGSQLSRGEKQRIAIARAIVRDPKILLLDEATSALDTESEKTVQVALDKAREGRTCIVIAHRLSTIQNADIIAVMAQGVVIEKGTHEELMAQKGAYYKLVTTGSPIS

[2] = molecular target: ATP-binding cassette sub-family C member 2 (Homo sapiens, UniProt Q92887); assay: Inhibition of human MRP2 overexpressed in Sf9 cell membrane vesicles assessed as uptake of [3H]-estradiol-17beta-D-glucuronide in presence of ATP and GSH measured after 20 mins by membrane vesicle transport assay
Sequence of ATP-binding cassette sub-family C member 2 (Q92887 whole entry): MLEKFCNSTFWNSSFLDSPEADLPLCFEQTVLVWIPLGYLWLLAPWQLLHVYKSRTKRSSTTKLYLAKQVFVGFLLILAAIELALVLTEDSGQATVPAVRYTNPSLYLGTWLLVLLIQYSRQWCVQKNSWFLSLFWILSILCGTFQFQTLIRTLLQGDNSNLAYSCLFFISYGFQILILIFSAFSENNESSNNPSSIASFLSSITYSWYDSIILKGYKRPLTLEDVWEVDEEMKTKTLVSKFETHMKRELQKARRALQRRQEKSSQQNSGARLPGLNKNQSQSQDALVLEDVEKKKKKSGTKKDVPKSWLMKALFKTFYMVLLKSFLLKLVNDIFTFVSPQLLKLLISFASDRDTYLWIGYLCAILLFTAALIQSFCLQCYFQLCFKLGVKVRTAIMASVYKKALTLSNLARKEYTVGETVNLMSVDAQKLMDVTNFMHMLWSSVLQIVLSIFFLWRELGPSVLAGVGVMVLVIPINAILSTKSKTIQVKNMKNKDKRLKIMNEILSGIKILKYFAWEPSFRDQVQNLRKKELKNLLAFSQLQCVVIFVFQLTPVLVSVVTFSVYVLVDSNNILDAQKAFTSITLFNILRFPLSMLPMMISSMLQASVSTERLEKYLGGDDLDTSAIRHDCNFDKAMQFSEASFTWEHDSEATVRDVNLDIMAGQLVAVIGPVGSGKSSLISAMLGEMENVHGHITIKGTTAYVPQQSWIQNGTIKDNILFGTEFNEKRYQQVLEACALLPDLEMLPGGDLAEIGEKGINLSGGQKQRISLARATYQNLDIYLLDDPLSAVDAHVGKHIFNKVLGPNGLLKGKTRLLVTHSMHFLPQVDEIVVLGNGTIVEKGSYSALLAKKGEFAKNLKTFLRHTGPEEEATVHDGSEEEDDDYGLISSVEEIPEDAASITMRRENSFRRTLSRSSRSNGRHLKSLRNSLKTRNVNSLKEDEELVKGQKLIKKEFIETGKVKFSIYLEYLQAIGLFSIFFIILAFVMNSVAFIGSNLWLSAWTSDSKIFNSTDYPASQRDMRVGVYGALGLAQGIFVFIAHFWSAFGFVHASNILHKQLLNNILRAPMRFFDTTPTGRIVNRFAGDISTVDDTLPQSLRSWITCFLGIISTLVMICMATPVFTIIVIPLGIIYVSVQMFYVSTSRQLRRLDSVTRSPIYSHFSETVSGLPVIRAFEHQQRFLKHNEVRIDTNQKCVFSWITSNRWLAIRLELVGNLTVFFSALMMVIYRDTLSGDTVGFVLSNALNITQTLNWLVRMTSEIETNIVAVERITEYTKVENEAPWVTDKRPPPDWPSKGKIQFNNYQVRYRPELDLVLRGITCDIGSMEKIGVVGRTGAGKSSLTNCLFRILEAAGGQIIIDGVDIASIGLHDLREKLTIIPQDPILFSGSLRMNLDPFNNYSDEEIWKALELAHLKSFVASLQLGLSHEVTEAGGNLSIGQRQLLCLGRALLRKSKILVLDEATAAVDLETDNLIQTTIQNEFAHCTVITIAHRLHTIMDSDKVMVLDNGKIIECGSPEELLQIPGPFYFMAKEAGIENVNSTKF

[3] = molecular target: ATP-binding cassette sub-family C member 3 (Homo sapiens, UniProt O15438); assay: Inhibition of human MRP3 overexpressed in Sf9 insect cell membrane vesicles assessed as uptake of [3H]-estradiol-17beta-D-glucuronide in presence of ATP and GSH measured after 10 mins by membrane vesicle transport assay; assay type: ADME, cell-based
Sequence of ATP-binding cassette sub-family C member 3 (O15438 whole entry): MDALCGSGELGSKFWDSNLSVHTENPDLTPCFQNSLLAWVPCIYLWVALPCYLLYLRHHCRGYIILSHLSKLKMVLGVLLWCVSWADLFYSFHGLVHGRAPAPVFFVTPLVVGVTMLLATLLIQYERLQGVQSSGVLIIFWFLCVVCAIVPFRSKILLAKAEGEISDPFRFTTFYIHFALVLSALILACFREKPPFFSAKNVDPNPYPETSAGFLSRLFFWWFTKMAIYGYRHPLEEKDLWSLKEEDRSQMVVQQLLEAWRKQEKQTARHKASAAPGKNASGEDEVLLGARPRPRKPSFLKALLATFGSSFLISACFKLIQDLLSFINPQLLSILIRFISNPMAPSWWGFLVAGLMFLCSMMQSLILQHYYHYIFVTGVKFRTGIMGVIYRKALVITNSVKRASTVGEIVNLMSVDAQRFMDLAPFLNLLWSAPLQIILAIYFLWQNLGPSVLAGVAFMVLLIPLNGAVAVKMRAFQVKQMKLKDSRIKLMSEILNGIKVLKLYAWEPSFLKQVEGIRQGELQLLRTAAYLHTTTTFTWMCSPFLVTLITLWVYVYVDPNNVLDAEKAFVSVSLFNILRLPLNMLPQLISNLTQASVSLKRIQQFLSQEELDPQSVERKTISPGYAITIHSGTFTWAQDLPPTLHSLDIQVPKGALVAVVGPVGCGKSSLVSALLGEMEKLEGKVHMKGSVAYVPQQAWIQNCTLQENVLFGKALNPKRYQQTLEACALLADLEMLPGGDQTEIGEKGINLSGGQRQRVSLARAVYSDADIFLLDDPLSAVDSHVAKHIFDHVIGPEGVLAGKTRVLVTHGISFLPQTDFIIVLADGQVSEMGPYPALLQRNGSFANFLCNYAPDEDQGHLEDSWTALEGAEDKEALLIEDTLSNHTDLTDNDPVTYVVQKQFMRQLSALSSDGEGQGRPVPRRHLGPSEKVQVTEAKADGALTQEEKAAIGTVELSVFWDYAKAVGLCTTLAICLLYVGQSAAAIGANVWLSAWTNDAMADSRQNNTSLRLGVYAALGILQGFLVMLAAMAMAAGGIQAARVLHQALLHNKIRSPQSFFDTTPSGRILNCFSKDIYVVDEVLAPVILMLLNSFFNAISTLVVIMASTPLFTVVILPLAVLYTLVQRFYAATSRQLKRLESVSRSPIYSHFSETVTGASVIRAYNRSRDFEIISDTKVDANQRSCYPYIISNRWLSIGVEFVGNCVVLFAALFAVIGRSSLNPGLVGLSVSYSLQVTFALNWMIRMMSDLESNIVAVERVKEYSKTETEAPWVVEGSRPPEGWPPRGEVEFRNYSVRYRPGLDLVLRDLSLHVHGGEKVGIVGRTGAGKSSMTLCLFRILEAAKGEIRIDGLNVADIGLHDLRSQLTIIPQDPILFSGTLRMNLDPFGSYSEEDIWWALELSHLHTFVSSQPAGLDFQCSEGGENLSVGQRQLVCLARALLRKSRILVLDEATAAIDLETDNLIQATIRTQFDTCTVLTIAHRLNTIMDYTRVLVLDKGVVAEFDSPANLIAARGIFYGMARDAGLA

[4] = molecular target: T1, ATP-binding cassette sub-family C member 4 (Homo sapiens, UniProt O15439); assay: Inhibition of human MRP4 overexpressed in Sf9 cell membrane vesicles assessed as uptake of [3H]-estradiol-17beta-D-glucuronide in presence of ATP and GSH measured after 20 mins by membrane vesicle transport assay; assay type: ADME, cell-based
T1 sequence (O15439 whole entry): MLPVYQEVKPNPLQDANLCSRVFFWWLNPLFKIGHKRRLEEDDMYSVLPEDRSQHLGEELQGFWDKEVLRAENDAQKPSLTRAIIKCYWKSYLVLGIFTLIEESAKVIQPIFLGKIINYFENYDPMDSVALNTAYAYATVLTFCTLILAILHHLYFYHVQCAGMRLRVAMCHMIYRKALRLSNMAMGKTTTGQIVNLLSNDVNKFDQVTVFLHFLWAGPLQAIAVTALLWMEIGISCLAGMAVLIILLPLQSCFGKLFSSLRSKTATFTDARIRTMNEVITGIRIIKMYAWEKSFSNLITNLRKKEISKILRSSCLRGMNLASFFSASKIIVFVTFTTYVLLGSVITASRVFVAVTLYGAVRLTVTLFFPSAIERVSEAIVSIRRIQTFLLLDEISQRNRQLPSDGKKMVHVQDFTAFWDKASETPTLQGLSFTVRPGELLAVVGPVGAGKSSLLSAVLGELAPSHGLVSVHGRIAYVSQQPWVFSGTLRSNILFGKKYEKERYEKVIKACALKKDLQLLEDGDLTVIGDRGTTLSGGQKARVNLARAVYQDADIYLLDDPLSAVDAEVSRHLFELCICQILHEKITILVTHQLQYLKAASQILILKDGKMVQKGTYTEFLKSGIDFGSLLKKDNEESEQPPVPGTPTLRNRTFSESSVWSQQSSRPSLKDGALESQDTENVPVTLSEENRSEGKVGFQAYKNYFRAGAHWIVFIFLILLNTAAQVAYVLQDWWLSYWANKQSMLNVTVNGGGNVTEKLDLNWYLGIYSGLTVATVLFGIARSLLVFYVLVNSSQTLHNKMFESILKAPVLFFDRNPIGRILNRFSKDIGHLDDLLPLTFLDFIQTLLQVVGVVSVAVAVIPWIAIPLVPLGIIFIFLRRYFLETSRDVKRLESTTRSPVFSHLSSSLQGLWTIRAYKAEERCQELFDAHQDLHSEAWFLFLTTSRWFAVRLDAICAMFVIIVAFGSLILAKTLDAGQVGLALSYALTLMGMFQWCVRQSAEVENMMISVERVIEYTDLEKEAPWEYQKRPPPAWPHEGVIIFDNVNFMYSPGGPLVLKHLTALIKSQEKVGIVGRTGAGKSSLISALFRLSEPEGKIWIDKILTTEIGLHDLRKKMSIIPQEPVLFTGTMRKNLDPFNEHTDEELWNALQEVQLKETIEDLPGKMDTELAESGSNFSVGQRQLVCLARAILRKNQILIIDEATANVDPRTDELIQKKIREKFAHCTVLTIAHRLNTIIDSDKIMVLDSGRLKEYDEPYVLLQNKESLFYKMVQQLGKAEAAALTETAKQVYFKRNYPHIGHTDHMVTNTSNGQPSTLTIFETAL

SMILES	IC50 [1]	IC50 [2]	IC50 [3]	IC50 [4]
CCC(=O)NCC[C@@H]1CCc2ccc3c(c21)CCO3 [RAMELTEON]	> 133 µM	> 133 µM	> 133 µM	> 133 µM
O=C1Nc2ccc(Cl)cc2[C@@](C#CC2CC2)(C(F)(F)F)O1 [EFAVIRENZ]	> 133 µM	> 133 µM	> 133 µM	> 133 µM
CC(C)NNC(=O)c1ccncc1 [IPRONIAZID]	> 133 µM	> 133 µM	> 133 µM	> 133 µM
CO/N=C1\CN(c2nc3c(cc2F)c(=O)c(C(=O)O)cn3C2CC2)CC1CN (stereo unspecified) [GEMIFLOXACIN MESYLATE]	> 133 µM	> 133 µM	> 133 µM	73.2 µM
CC(C)NCC(O)c1ccc(NS(C)(=O)=O)cc1 (stereo unspecified) [SOTALOL]	> 133 µM	> 133 µM	> 133 µM	> 133 µM
N[C@@H](Cc1ccc(N(CCCl)CCCl)cc1)C(=O)O	> 133 µM	> 133 µM	> 133 µM	> 133 µM
Cc1ccc(-c2cc(C(F)(F)F)nn2-c2ccc(S(N)(=O)=O)cc2)cc1 [CELECOXIB]	> 133 µM	> 133 µM	> 133 µM	> 133 µM
CCC1(c2ccccc2)C(=O)NCNC1=O [PRIMIDONE]	> 133 µM	> 133 µM	> 133 µM	> 133 µM
CC(=O)Oc1cccc2c1C(=O)c1c(OC(C)=O)cc(C(=O)O)cc1C2=O [DIACEREIN]	> 133 µM	> 133 µM	> 133 µM	6.4 µM
CCN(CC)CCNC(=O)c1cc(Cl)c(N)cc1OC [METOCLOPRAMIDE]	> 133 µM	> 133 µM	> 133 µM	> 133 µM
Cc1cccc(N(C)C(=S)Oc2ccc3ccccc3c2)c1 [TOLNAFTATE]	> 133 µM	> 133 µM	> 133 µM	> 133 µM
C#CCN[C@@H]1CCc2ccccc21 [RASAGILINE MESYLATE]	> 133 µM	> 133 µM	> 133 µM	> 133 µM
CN(C/C=C/C#CC(C)(C)C)Cc1cccc2ccccc12 [TERBINAFINE HYDROCHLORIDE]	> 133 µM	> 133 µM	> 133 µM	> 133 µM
CC(C)Cn1cnc2c(N)nc3ccccc3c21 [IMIQUIMOD]	> 133 µM	> 133 µM	> 133 µM	> 133 µM
Cc1onc(-c2ccccc2)c1C(=O)N[C@@H]1C(=O)N2[C@@H]1SC(C)(C)[C@@H]2C(=O)O	> 133 µM	> 133 µM	> 133 µM	> 133 µM
CCOc1ccc(C[C@H]2NC(=O)CCSSC[C@@H](C(=O)N3CCC[C@H]3C(=O)N[C@@H](CCCN)C(=O)NCC(N)=O)NC(=O)[C@H](CC(N)=O)NC(=O)[C@H]([C@@H](C)O)NC(=O)[C@H]([C@@H](C)CC)NC2=O)cc1 [ATOSIBAN] ([Mpa][dY](Et)ITNCP[Orn]G-NH2; disulfide 1-6)	> 133 µM	> 133 µM	> 133 µM	> 133 µM
CC[C@@]1(O)C(=O)OCc2c1cc1n(c2=O)Cc2cc3c([N+](=O)[O-])cccc3nc2-1 [RUBITECAN]	> 133 µM	60.5 µM	10.2 µM	5.1 µM
CCN[C@H]1CN(CCCOC)S(=O)(=O)c2sc(S(N)(=O)=O)cc21 [BRINZOLAMIDE]	> 133 µM	> 133 µM	> 133 µM	> 133 µM
Nc1nc(Cl)nc2c1ncn2[C@@H]1O[C@H](CO)[C@@H](O)[C@@H]1F [CLOFARABINE]	> 133 µM	> 133 µM	> 133 µM	> 133 µM
CC(C)(C)NC[C@H](O)COc1nsnc1N1CCOCC1 [TIMOLOL]	> 133 µM	> 133 µM	> 133 µM	> 133 µM

SMILES	IC50 [1]	IC50 [2]	IC50 [3]	IC50 [4]
C[C@@H]1CC[C@H]2[C@@H](C)C(=O)O[C@@H]3O[C@@]4(C)CC[C@@H]1[C@]32OO4 [ARTEMISININ]	> 133 µM	> 133 µM	> 133 µM	> 133 µM
CCCCC(=O)N(Cc1ccc(-c2ccccc2-c2nnn[nH]2)cc1)[C@H](C(=O)O)C(C)C	> 133 µM	> 133 µM	> 133 µM	> 133 µM
O=P(O)(O)C(O)(Cn1ccnc1)P(=O)(O)O [ZOLEDRONIC ACID]	> 133 µM	> 133 µM	> 133 µM	> 133 µM
COc1ccc(Cl)cc1[C@]1(F)C(=O)Nc2cc(C(F)(F)F)ccc21 [FLINDOKALNER]	> 133 µM	> 133 µM	> 133 µM	> 133 µM
C=CCc1ccccc1OCC(O)CNC(C)C (stereo unspecified) [ALPRENOLOL]	> 133 µM	> 133 µM	> 133 µM	> 133 µM
COc1ccccc1N1CCN(CCCNc2cc(=O)n(C)c(=O)n2C)CC1	> 133 µM	> 133 µM	> 133 µM	> 133 µM
S=C=Nc1cccc2ccccc12 [1-NAPHTHYLISOTHIOCYANATE]	69 µM	> 133 µM	> 133 µM	> 133 µM
CC(C)OC(=O)OCOP(=O)(CO[C@H](C)Cn1cnc2c(N)ncnc21)OCOC(=O)OC(C)C [TENOFOVIR DISOPROXIL FUMARATE]	> 133 µM	> 133 µM	> 133 µM	> 133 µM
C[C@@H]1C[C@H]2[C@@H]3CCC4=CC(=O)C=C[C@]4(C)[C@@]3(F)[C@@H](O)C[C@]2(C)[C@@]1(O)C(=O)CO [DEXAMETHASONE]	> 133 µM	> 133 µM	> 133 µM	> 133 µM
NCc1ccc(S(N)(=O)=O)cc1 [MAFENIDE ACETATE]	> 133 µM	> 133 µM	> 133 µM	> 133 µM
C=C[C@H]1C[N@@]2CC[C@H]1C[C@@H]2[C@@H](O)c1ccnc2ccc(OC)cc12 [QUINIDINE]	> 133 µM	> 133 µM	> 133 µM	45.8 µM
CC1(C)S[C@@H]2[C@H](NC(=O)[C@H](N)c3ccc(O)cc3)C(=O)N2[C@H]1C(=O)O [AMOXICILLIN]	> 133 µM	> 133 µM	> 133 µM	> 133 µM
C[C@@H](O)[C@H]1C(=O)N2C(C(=O)O)=C(S[C@@H]3CN[C@H](C(=O)Nc4cccc(C(=O)O)c4)C3)[C@H](C)[C@H]12	> 133 µM	56.2 µM	> 133 µM	> 133 µM
CN1CCOC(c2ccccc2)c2ccccc2C1 (stereo unspecified) [NEFOPAM]	> 133 µM	> 133 µM	> 133 µM	> 133 µM
CC1COc2c(N3CCN(C)CC3)c(F)cc3c(=O)c(C(=O)O)cn1c23 (stereo unspecified) [OFLOXACIN]	> 133 µM	> 133 µM	> 133 µM	> 133 µM
CCCCCCCCCCC[C@@H](C[C@@H]1OC(=O)[C@H]1CCCCCC)OC(=O)[C@H](CC(C)C)NC=O [ORLISTAT]	> 133 µM	> 133 µM	> 133 µM	> 133 µM
COC(=O)[C@H](c1ccccc1Cl)N1CCc2sccc2C1 [CLOPIDOGREL BISULFATE]	72 µM	> 133 µM	> 133 µM	> 133 µM
C[C@]12CC[C@H](O)CC1=CC[C@@H]1[C@@H]2CC[C@]2(C)C(c3cccnc3)=CC[C@@H]12 [ABIRATERONE]	> 133 µM	> 133 µM	> 133 µM	> 133 µM
CCN1CCCC1CNC(=O)c1cc(S(=O)(=O)CC)c(N)cc1OC (stereo unspecified) [AMISULPRIDE]	> 133 µM	> 133 µM	> 133 µM	> 133 µM
